Experimental findings from patent publication US8278464B2, “Insecticides” (Syngenta Crop Protection LLC, priority 2006, dated 2012) are described below.

Structures are written as SMILES. Bounds are passed on as bounds.

Type in all cases: in vivo
Assay [1] concerns Myzus persicae (Green Peach Aphid). Put plainly: Activity against Myzus persicae, systemic, pea seedlings (Example B6). The note with it: 144 h, 6 days after introduction. The source says:
Roots of pea seedlings, infested with an aphid population of mixed ages, are placed directly in the test solutions. 6 days after introduction, samples are checked for mortality and special effects on the plant.

In assay [2] the test system is Spodoptera littoralis (Cotton Leafworm). Put plainly: Systemic insecticide test for Spodoptera littoralis, maize seedlings, 12.5 ppm (Example B9). Particulars: 96 h, 12.5 ppm in water, systemic via maize seedlings, larvae incubated four days. As to the method:
(§1) Four day old maize seedlings (Zea mais, variety Stoneville) are placed individual in vials containing 24 ml water into which the chemical is diluted at 12.5 ppm. Seedlings are allowed to grow for six days. Subsequently leaves are cut and placed in a Petri dish (5 cm diameter), inoculated with twelve to fifteen 1st instar S. littoralis larvae and incubated for four days in a growth chamber (25° C., 50% r.h., 18:6 L:D photo period). Number of alive insects are counted and percentage of dead calculated. Tests were conducted with one replicate.

In assay [3] the test system is Myzus persicae (Green Peach Aphid). Put plainly: Activity against Myzus persicae, contact, sunflower leaf discs (Example B5). The note with it: foliar, 144 h, 6 DAT. As to the method:
Sunflower leaf discs are placed on agar in a 24-well microtiter plate and sprayed with test solutions. After drying, the leaf discs are infested with an aphid population of mixed ages. After an incubation period of 6 DAT, samples are checked for mortality and special effects (e.g. phytotoxicity).

For assay [4], the system named is Diabrotica balteata (Corn Root Worm). Put plainly: Activity against Diabrotica balteata, artificial diet MTP (Example B4). The note with it: 120 h, L2 larvae, incubation 5 days. The protocol:
(§2) 24-well microtiter plate (MTP) with artificial diet is treated with test solutions by pipetting. After drying, the MTP's are infested with larvae (L2) (6-10 per well). After an incubation period of 5 days, samples are checked for larval mortality, antifeedant and growth regulation. In this test, compounds listed in the Tables above show good activity. In particular compounds T13.1.2, T15.1.1, T15.1.91, T13.1.1, T9.1.2 (diastereomer A), T9.1.2 (diastereomer B), T17.1.2 (diastereomer A), T17.1.2 (diastereomer B), T16.1.91, T13.1.92, T13.1.91, T13.1.6, T13.1.96, T44.1.2, T13.1.8, T13.1.23, T13.1.113, T13.1.21, T13.1.111 have an activity of over 80% at 400 ppm.

The test system of assay [5] is Heliothis virescens (Tobacco Budworm). Put plainly: Activity against Heliothis virescens, eggs on artificial diet (Example B2). The note with it: 96 h, eggs 0-24 h old, incubation 4 days. As to the method: Eggs (0-24 h old) are placed in 24-well microtiter plate on artificial diet and treated with test solutions by pipetting. After an incubation period of 4 days, samples are checked for egg mortality, larval mortality, and growth regulation.

For assay [6], the system named is Plutella xylostella (Diamond Back Moth). Nature of the assay: Activity against Plutella xylostella, artificial diet MTP (Example B3). Particulars: 120 h, L2 larvae, incubation 5 days. As to the method: as §2, with “larvae (L2) (10-15 per well).” for “larvae (L2) (6-10 per well).”, “(diastereomer B), T16.1.1, T17.1.2 (diastereomer” for “(diastereomer B), T17.1.2 (diastereomer”, “T16.1.91, T13.1.92, T13.1.361, T13.1.391, T13.1.91, T13.1.6,” for “T16.1.91, T13.1.92, T13.1.91, T13.1.6,”, “T13.1.8, T13.1.23, T13.1.93, T13.1.113, T13.1.21,” for “T13.1.8, T13.1.23, T13.1.113, T13.1.21,”

Assay [7] deals with Spodoptera littoralis (Egyptian Cotton Leafworm). Nature of the assay: Activity against Spodoptera littoralis, cotton leaf discs sprayed (Example B1). Particulars: foliar, 72 h, L1 larvae, checked 3 days after treatment. From the text:
Cotton leaf discs are placed on agar in a 24-well microtiter plate and sprayed with test solutions. After drying, the leaf discs are infested with 5 L1 larvae. The samples are checked for mortality, repellent effect, feeding behaviour, and growth regulation 3 days after treatment (DAT).

The test system of assay [8] is Thrips tabaci (Onion Thrips). Put plainly: Activity against Thrips tabaci, sunflower leaf discs (Example B7). The note with it: foliar, 144 h, incubation 6 days. As to the method:
Sunflower leaf discs are placed on agar in a 24-well microtiter plate and sprayed with test solutions. After drying, the leaf discs are infested with a thrips population of mixed ages. After an incubation period of 6 days, samples are checked for mortality and special effects (e.g. phytotoxicity).

The test system of assay [9] is Spodoptera littoralis (Lepidoptera:Noctuidae). Nature of the assay: Systemic insecticide test for Spodoptera littoralis, comparison with state of the art (Example B11). As to the method: as §1, with “the prescribed concentrations (3 and 0.8 ppm).” for “12.5 ppm.”, “(3.5” for “(5”, “calculated. Effects on larvae growth were compared to the control and percentage of larvae growth reduction calculated.” for “calculated.”

On to `Cc1cc(C#N)cc(C(=O)NC2CS(=O)(=O)C2)c1NC(=O)c1cc(Br)nn1-c1ncccc1Cl` [T13.1.96], for which the pest or weed control at 400 ppm in [1], in [3], in assay [4], in [5], in [6] and in assay [7] was over 80% throughout. Moreover, the pest or weed control at 400 ppm in assay [8] is over 80%. The pest or weed control at 12.5 ppm in [2] was over 80%.

The molecule `O=C(NC1CS(=O)(=O)C1)c1cccc(Cl)c1NC(=O)c1cc(C(F)(F)F)nn1-c1ncccc1Cl` [T13.1.391] came in with a pest or weed control at 12.5 ppm in assay [2] of over 80%. Moreover, the pest or weed control at 400 ppm in [5], in [6] and in assay [7] was over 80% in each case. Further, the “Death rate (%) after 4 days” value is on record as 10% in [9] (concentration 0.8 ppm) and 55% in assay [9] (concentration 3 ppm). Besides, the results for the “Larvae growth reduction (% compared to control)” value in assay [9] (concentration 0.8 ppm) and in [9] (concentration 3 ppm) were 0% and 100%, respectively.

Regarding `Cc1cc(C#N)cc(C(=O)NC2CS(=O)(=O)C2(C)C)c1NC(=O)c1cc(C(F)(F)F)nn1-c1ncccc1Cl` (stereo not drawn) [T15.1.91], the pest or weed control at 400 ppm in assay [3], in assay [4], in assay [5], in assay [6], in assay [7] and in [8] was over 80% each time.

Turning to `Cc1cc(Cl)cc(C(=O)NC2(C)CS(=N)(=O)C2)c1NC(=O)c1cc(C(F)(F)F)nn1-c1ncccc1Cl` (single isomer, unassigned) [T17.1.2 (diastereomer A)], the pest or weed control at 400 ppm in [1], in [3], in assay [4], in assay [5], in assay [6] and in [7] was over 80% in each case. Besides, in assay [8], the pest or weed control at 400 ppm is over 80%. Also, in [2], the pest or weed control at 12.5 ppm was over 80%.

`Cc1cc(C#N)cc(C(=O)NC2(C)CS(=O)(=O)C2)c1NC(=O)c1cc(C(F)(F)F)nn1-c1ncccc1Cl` [T13.1.92]: the pest or weed control at 400 ppm in assay [1], in [3], in [4], in [5], in assay [6] and in assay [7] was over 80% each time. The molecule also had a pest or weed control at 400 ppm in assay [8] of over 80%. The pest or weed control at 12.5 ppm in assay [2] was over 80%.

In the case of `Cc1cc(C#N)cc(C(=O)NC2CS(=O)(=O)C2)c1NC(=O)c1cc(C(F)(F)F)nn1-c1ncccc1Cl` [T13.1.91], in assay [2], the pest or weed control at 12.5 ppm was over 80%. The pest or weed control at 400 ppm in assay [3], in [4], in [5], in [6], in [7] and in assay [8] was over 80% throughout.

In the case of `Cc1cc(Cl)cc(C(=O)NC2CS(=O)(=O)C2)c1NC(=O)c1cc(OCC(F)(F)F)nn1-c1ncccc1Cl` [T13.1.21], the pest or weed control at 400 ppm in assay [1], in [3], in assay [4], in [5], in assay [6] and in assay [7] was over 80% throughout. This molecule returned a pest or weed control at 400 ppm in [8] of over 80%.

`O=C(NC1CCC1)c1cccc(Cl)c1NC(=O)c1cc(C(F)(F)F)nn1-c1ncccc1Cl` [Comp. 296, reference compound]: the “Death rate (%) after 4 days” value in assay [9] (concentration 0.8 ppm) and in assay [9] (concentration 3 ppm) was 0% each time. Besides, the “Larvae growth reduction (% compared to control)” value in assay [9] (concentration 0.8 ppm) and in assay [9] (concentration 3 ppm) was 0% throughout.

Regarding `Cc1cc(Cl)cc(C(=O)NC2(C)C[S+]([O-])C2)c1NC(=O)c1cc(C(F)(F)F)nn1-c1ncccc1Cl` (single isomer, unassigned) [T9.1.2 (diastereomer A)], the pest or weed control at 400 ppm in assay [1], in [3], in [4], in [5], in [6] and in assay [7] was over 80% each time. Moreover, the pest or weed control at 400 ppm in [8] was over 80%. Also, the pest or weed control at 12.5 ppm in assay [2] was over 80%.

Regarding `Cc1cc(Cl)cc(C(=O)NC2(C)CS(=O)(=O)C2)c1NC(=O)c1cc(C(F)(F)F)nn1-c1ncccc1Cl` [T13.1.2, 2-(3-Chloro-pyridin-2-yl)-5-trifluoromethyl-2H-pyrazole-3-carboxylic acid [4-chloro-2-methyl-6-(3-methyl-1,1-dioxo-1λ^6-thietan-3-ylcarbamoyl)-phenyl]-amide], the pest or weed control at 400 ppm in [1], in [3], in assay [4], in [5], in assay [6] and in [7] was over 80% throughout. In assay [8], this molecule had a pest or weed control at 400 ppm of over 80%. The same molecule had a pest or weed control at 12.5 ppm in assay [2] of over 80%.
